Tests used:
JAK3 enzyme [1] = target: T1, JAK3 enzyme (Homo sapiens, UniProt P52333); experiment: JAK Caliper Enzyme Assay at 1 mM ATP; type: biochemical
T1 sequence (P52333 1-1124): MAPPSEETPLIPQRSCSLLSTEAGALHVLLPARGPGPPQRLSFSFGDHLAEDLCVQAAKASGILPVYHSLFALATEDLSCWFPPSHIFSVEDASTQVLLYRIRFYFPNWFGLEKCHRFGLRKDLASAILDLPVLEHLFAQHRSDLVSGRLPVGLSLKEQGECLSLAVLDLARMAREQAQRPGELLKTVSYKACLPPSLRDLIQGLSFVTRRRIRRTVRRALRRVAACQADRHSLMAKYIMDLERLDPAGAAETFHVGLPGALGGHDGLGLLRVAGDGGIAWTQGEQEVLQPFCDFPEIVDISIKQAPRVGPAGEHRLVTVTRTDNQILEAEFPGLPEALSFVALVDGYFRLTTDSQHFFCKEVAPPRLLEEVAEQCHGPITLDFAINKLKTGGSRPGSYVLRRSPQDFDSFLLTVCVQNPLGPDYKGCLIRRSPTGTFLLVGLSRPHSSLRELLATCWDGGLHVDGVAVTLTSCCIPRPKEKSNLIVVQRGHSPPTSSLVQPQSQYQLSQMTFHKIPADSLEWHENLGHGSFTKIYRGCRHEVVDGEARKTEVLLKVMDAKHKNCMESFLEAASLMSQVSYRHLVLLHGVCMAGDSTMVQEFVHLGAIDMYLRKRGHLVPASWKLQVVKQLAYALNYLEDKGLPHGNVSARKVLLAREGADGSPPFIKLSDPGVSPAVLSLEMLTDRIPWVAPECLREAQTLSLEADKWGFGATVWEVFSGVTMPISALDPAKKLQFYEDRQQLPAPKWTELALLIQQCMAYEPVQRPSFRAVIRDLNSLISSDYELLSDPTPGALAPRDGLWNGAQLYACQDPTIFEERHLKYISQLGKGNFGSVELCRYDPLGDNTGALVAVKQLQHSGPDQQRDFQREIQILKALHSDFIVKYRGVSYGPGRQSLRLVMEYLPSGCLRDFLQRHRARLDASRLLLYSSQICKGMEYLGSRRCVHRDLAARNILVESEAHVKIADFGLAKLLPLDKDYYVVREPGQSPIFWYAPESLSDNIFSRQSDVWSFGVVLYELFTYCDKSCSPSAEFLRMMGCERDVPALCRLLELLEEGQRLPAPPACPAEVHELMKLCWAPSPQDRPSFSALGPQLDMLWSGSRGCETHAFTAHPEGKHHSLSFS
Procedure, shortened: (§1)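 Test compounds were diluted in DMSO as an 11-point half-log series from a 600 μM top concentration (DMSO series, not final assay level). Enzyme amount and incubation time were set per enzyme prep to reach 20%-30% phosphorylation. Phosphorylated and unphosphorylated peptide were resolved by microfluidic separation.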

[2] = system: IL-15 induced STAT5 phosphorylation in human whole blood lymphocytes; experiment: HWB IL-15 Induced STAT5 Phosphorylation Assay; type: cell-based; details: Lymphocyte, IL-15 final 50 ng/ml, read-out: HWB_IL15 pSTAT5 IC50
Method: HWB IL-15 Induced STAT5 Phosphorylation Assay
After serial dilution of the test compounds 1:2 in DMSO at desired concentration (500× of final), the compounds were further diluted in PBS (by adding 4 μL compound/DMSO in 96 μL PBS, [DMSO]=4%, 20× final). To 96-well polypropylene plates were added 90 μl HWB (heparin treated Human Whole Blood)/well, followed by 5 μl/well 4% DMSO in D-PBS or various concentrations of 20× inhibitor in 4% DMSO in D-PBS (w/o Ca^+2 or Mg^+2) to give 1× in 0.2% DMSO. After mixing and incubating for 45 minutes at 37° C., 5 μl D-PBS (unstimulated control) or 20× stocks of 5 μl human IL-15 (final concentration is 50 ng/ml) were added, and mixed three times. After incubating 15 minutes at 37° C., 1× Lyse/Fix Buffer (BD Phosflow 5× Lyse/Fix Buffer) was added to all wells at 1000 μl/well, then incubated for 20 minutes at 37° C. and spun 5 mins at 1200 rpm. After washing in 1000 μl FACS buffer 1× and spinning for 5 mins at 1200 rpm, 400 μl ice cold Perm Buffer III were added to each well. After mixing gently (1-2×) and incubating on ice for 30 minutes, spinning for 5 mins at 1200 rpm without interruption, and washing 1× in cold […] FACS buffer (D-PBS containing 0.1% BSA and 0.1% sodium azide) 250 μl/well of the desired AlexaFluor647-conjugated anti-phospho STATS antibody at 1:125 dilution in FACS buffer was added. Following incubating at 4° C. over night, all the samples were transferred to 96-well polypropylene U-bottom plate, and checked by flow cytometry gated on total lymphocytes.

[3] = system: IL-15 induced P-STAT5 in human PBMC; experiment: PBMC IL-15 Induced P-STAT5; type: cell-based; details: human PBMC, IL-15 final 41 ng/mL; read-out: PBMC IL15_pSTAT5_IC50
Procedure, shortened: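 Thawed human PBMC, rested in human plasma, were preincubated 15 min at 37 °C with compound (0.2% DMSO), then stimulated 15 min with IL-15 at 41 ng/mL final. After paraformaldehyde fixation and methanol permeabilisation, Alexa Fluor 647 anti-STAT5 staining overnight at 4 °C was analysed by flow cytometry on total lymphocytes.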

JAK3 enzyme [4] = target: T1, JAK3 enzyme; experiment: JAK Caliper Enzyme Assay at 4 μM ATP; type: biochemical
Procedure, shortened: as §1

[5] = Stability of JAK3 Covalent Inhibitors in Human Whole Blood; type: in vitro ADME; details: both sexes, 1 μM test compound, 37° C., 180 min incubation, read-out: Human blood stability t1/2
Procedure, shortened: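 Compound at 1 μM final incubated in duplicate at 37° C for 180 min in fresh K2-EDTA whole blood […]. Samples quenched in acetonitrile with internal standard; LC-MS/MS peak area ratios gave % parent remaining over time.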

SMILES | IC50 (JAK3 enzyme [1]) [nM] | IC50 [2] [nM] | IC50 (JAK3 enzyme [4]) [nM] | half-life at 1 μM [5] [h] | IC50 [3] [nM]
C=CC(=O)N1CCN(c2cnc3[nH]cc(C(=O)NC4CCCOC4)c3n2)CC1(C)C (racemic) [Example 149, Racemic-2-(4-acryloyl-3,3-dimethylpiperazin-1-yl)-N-(tetrahydro-2H-pyran-3-yl)-5H-pyrrolo[2,3-b]pyrazine-7-carboxamide] | 134 | 4240 | 0.565 |  | 163
C=CC(=O)N1CCC(Nc2cnc3[nH]cc(C(=O)NCc4ccc(F)c(OC)c4)c3n2)CC1 [Example 174, 2-[(1-acryloylpiperidin-4-yl)amino]-N-(4-fluoro-3-methoxybenzyl)-5H-pyrrolo[2,3-b]pyrazine-7-carboxamide] | 13 | 1730 | 0.368 |  | 162
C=CC(=O)N1CCC(Nc2cnc3[nH]cc(C(=O)NCc4cc(C(C)C)no4)c3n2)CC1 [Example 175, 2-[(1-acryloylpiperidin-4-yl)amino]-N-{[3-(propan-2-yl)-1,2-oxazol-5-yl]methyl}-5H-pyrrolo[2,3-b]pyrazine-7-carboxamide] | 8 | 1320 | 0.426 |  | 77.3
C=CC(=O)N1CCC(Nc2cnc3[nH]cc(C(=O)NCC(F)(F)C(F)(F)F)c3n2)CC1 [Example 179, 2-[(1-acryloylpiperidin-4-yl)amino]-N-(2,2,3,3,3-pentafluoropropyl)-5H-pyrrolo[2,3-b]pyrazine-7-carboxamide] | 18 | 850 | 0.596 |  | 94.8
C=CC(=O)N1CCC(Nc2cnc3[nH]cc(C(=O)NCc4sc(C(F)(F)F)nc4C)c3n2)CC1 [Example 180, 2-[(1-acryloylpiperidin-4-yl)amino]-N-{[4-methyl-2-(trifluoromethyl)-1,3-thiazol-5-yl]methyl}-5H-pyrrolo[2,3-b]pyrazine-7-carboxamide] | 12 | 944 | 0.481 |  | 204
C=CC(=O)N1CCC(Nc2cnc3[nH]cc(C(=O)NCc4ccc(OC(F)F)cc4)c3n2)CC1 [Example 181, 2-[(1-acryloylpiperidin-4-yl)amino]-N-[4-(difluoromethoxy)benzyl]-5H-pyrrolo[2,3-b]pyrazine-7-carboxamide] | 5 | 1820 | 0.379 |  | 159
C=CC(=O)N1CCC(Nc2cnc3[nH]cc(C(=O)NCc4scnc4C(F)(F)F)c3n2)CC1 [Example 185, 2-[(1-acryloylpiperidin-4-yl)amino]-N-{[4-(trifluoromethyl)-1,3-thiazol-5-yl]methyl}-5H-pyrrolo[2,3-b]pyrazine-7-carboxamide] | 6 | 542 | 0.372 |  | 73
C=CC(=O)N1CCC(Nc2cnc3[nH]cc(C(=O)NCc4ccc(Cl)cn4)c3n2)CC1 [Example 186, 2-[(1-acryloylpiperidin-4-yl)amino]-N-[(5-chloropyridin-2-yl)methyl]-5H-pyrrolo[2,3-b]pyrazine-7-carboxamide] | 15 | 870 | 0.485 |  | 213
C=CC(=O)N1CCC(Nc2cnc3[nH]cc(C(=O)NCc4ccc(OC)c(F)c4)c3n2)CC1 [Example 190, 2-[(1-acryloylpiperidin-4-yl)amino]-N-(3-fluoro-4-methoxybenzyl)-5H-pyrrolo[2,3-b]pyrazine-7-carboxamide] | 7 | 619 | 0.193 |  | 96.9
C=CC(=O)N1CCC(Nc2cnc3[nH]cc(C(=O)NCc4ccc(OC)cc4)c3n2)CC1 [Example 191, 2-[(1-acryloylpiperidin-4-yl)amino]-N-(4-methoxybenzyl)-5H-pyrrolo[2,3-b]pyrazine-7-carboxamide] | 9 | 778 | 0.484 |  | 137
C=CC(=O)N1CC[C@H](Nc2cnc3[nH]cc(C(=O)NCC(F)(F)F)c3n2)C1 [Example 231, 2-{[(3S)-1-acryloylpyrrolidin-3-yl]amino}-N-(2,2,2-trifluoroethyl)-5H-pyrrolo[2,3-b]pyrazine-7-carboxamide] | 85 |  | 0.322 | 5.35 | 353

The next lines start with results.

IC50 (JAK3 enzyme [1]) [nM] | IC50 [2] [nM] | IC50 (JAK3 enzyme [4]) [nM] | half-life at 1 μM [5] [h] | SMILES | IC50 [3] [nM]
82 | 1390 | 0.888 |  | C=CC(=O)N1CC[C@@H](Nc2cnc3[nH]cc(C(=O)NCC(C)CC(F)(F)F)c3n2)[C@@H](OC)C1 (mixture of isomers) [Example 269, Racemic-2-{[(3S,4R)-1-acryloyl-3-methoxypiperidin-4-yl]amino}-N-(4,4,4-trifluoro-2-methylbutyl)-5H-pyrrolo[2,3-b]pyrazine-7-carboxamide] | 220
31 | 765 | 0.343 |  | C=CC(=O)N1CCN(c2cnc3[nH]cc(C(=O)NCC(C)CC(F)(F)F)c3n2)CC1 (racemic) [Example 279, Racemic-2-(4-acryloylpiperazin-1-yl)-N-(4,4,4-trifluoro-2-methylbutyl)-5H-pyrrolo[2,3-b]pyrazine-7-carboxamide] | 107
17 | 841 | 0.315 |  | C=CC(=O)N1CCN(c2cnc3[nH]cc(C(=O)NC4CCCC4)c3n2)CC1 (racemic) [Example 292, Racemic-2-(4-acryloylpiperazin-1-yl)-N-cyclopentyl-5H-pyrrolo[2,3-b]pyrazine-7-carboxamide] | 27.7
57 | 913 | 1.21 |  | C=CC(=O)N1CC[C@@H](Nc2cnc3[nH]cc(C(=O)NC4CCCC4)c3n2)[C@@H](OC)C1 (racemic) [Example 299, Racemic-2-{[(3S,4R)-1-acryloyl-3-methoxypiperidin-4-yl]amino}-N-cyclopentyl-5H-pyrrolo[2,3-b]pyrazine-7-carboxamide] | 305
37 |  | 0.304 | 5.78 | C=CC(=O)N1CC[C@H](Nc2cnc3[nH]cc(C(=O)NCCC(F)(F)F)c3n2)C1 [Example 235, 2-{[(3S)-1-acryloylpyrrolidin-3-yl]amino}-N-(3,3,3-trifluoropropyl)-5H-pyrrolo[2,3-b]pyrazine-7-carboxamide] | 208
